In PubChem BioAssay (NCI):
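All cell lines were grown in 96-well plates and treated with compound for 48 hours. GI50 = concentration required for 50% inhibition of growth. At the TGI there is no net growth.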

Assays:
Assay in all cases: growth of human tumour cells (NCI), 48 h
NCI-H460 lung = test system: NCI-H460 lung
HOP-92 NSCLC = test system: HOP-92 NSCLC
COLO 205 colon = test system: COLO 205 colon
NCI-H23 lung = test system: NCI-H23 lung
UO-31 renal = test system: UO-31 renal
MOLT-4 leukemia = test system: MOLT-4 leukemia
786-0 renal = test system: 786-0 renal
T-47D breast = test system: T-47D breast
CCRF-CEM leukemia = test system: CCRF-CEM leukemia
SF-268 CNS = test system: SF-268 CNS
HCC-2998 colon = test system: HCC-2998 colon
OVCAR-3 ovarian = test system: OVCAR-3 ovarian
SN12C renal = test system: SN12C renal
SK-MEL-2 melanoma = test system: SK-MEL-2 melanoma
NCI-H522 lung = test system: NCI-H522 lung
ACHN renal = test system: ACHN renal
SNB-19 CNS = test system: SNB-19 CNS
UACC-257 melanoma = test system: UACC-257 melanoma
HT29 colon = test system: HT29 colon
SK-OV-3 ovarian = test system: SK-OV-3 ovarian
RPMI-8226 leukemia = test system: RPMI-8226 leukemia
MDA-MB-231 breast = test system: MDA-MB-231 breast
OVCAR-8 ovarian = test system: OVCAR-8 ovarian
SW-620 colon = test system: SW-620 colon
NCI/ADR-RES ovarian = test system: NCI/ADR-RES ovarian
HCT-15 colon = test system: HCT-15 colon
OVCAR-5 ovarian = test system: OVCAR-5 ovarian
SK-MEL-28 melanoma = test system: SK-MEL-28 melanoma
HCT-116 colon = test system: HCT-116 colon
SR leukemia = test system: SR leukemia
HS 578T breast = test system: HS 578T breast
MCF7 breast = test system: MCF7 breast
M14 melanoma = test system: M14 melanoma
K-562 leukemia = test system: K-562 leukemia
SF-295 CNS = test system: SF-295 CNS
SF-539 CNS = test system: SF-539 CNS
OVCAR-4 ovarian = test system: OVCAR-4 ovarian
LOX IMVI melanoma = test system: LOX IMVI melanoma
MDA-MB-435 = test system: MDA-MB-435
RXF 393 renal = test system: RXF 393 renal
UACC-62 melanoma = test system: UACC-62 melanoma
CAKI-1 renal = test system: CAKI-1 renal
PC-3 prostate = test system: PC-3 prostate
TK-10 renal = test system: TK-10 renal
MALME-3M melanoma = test system: MALME-3M melanoma
A549 NSCLC = test system: A549 NSCLC
EKVX NSCLC = test system: EKVX NSCLC
KM12 colon = test system: KM12 colon
NCI-H226 lung = test system: NCI-H226 lung
U251 CNS = test system: U251 CNS
HOP-62 NSCLC = test system: HOP-62 NSCLC
IGROV1 ovarian = test system: IGROV1 ovarian
DU-145 prostate = test system: DU-145 prostate
HL-60(TB) leukemia = test system: HL-60(TB) leukemia
SNB-75 CNS = test system: SNB-75 CNS
SK-MEL-5 melanoma = test system: SK-MEL-5 melanoma
A498 renal = test system: A498 renal
BT-549 breast = test system: BT-549 breast

## COc1c(O)cc2c(c1CC=C(C)C)OC(=O)c1c(cc(O)c(CC=C(C)C)c1O)O2
NCI-H460 lung
  GI50: 3.69 µM
  TGI: 7.29 µM
HOP-92 NSCLC
  GI50: 4.08 µM
  TGI: 7.78 µM
COLO 205 colon
  GI50: 4.51 µM
  TGI: 8.45 µM
NCI-H23 lung
  GI50: 3.45 µM
  TGI: 8.29 µM
UO-31 renal
  GI50: 4.22 µM
  TGI: 7.79 µM
MOLT-4 leukemia
  GI50: 4.1 µM
  TGI: 12.7 µM
786-0 renal
  GI50: 4.59 µM
  TGI: 8.47 µM
T-47D breast
  GI50: 4.48 µM
  TGI: 8.72 µM
CCRF-CEM leukemia
  GI50: 7.63 µM
  TGI: 25 µM
SF-268 CNS
  GI50: 4.26 µM
  TGI: 7.82 µM
HCC-2998 colon
  GI50: 2.56 µM
  TGI: 5.72 µM
OVCAR-3 ovarian
  GI50: 3.83 µM
  TGI: 7.2 µM
SN12C renal
  GI50: 3.67 µM
  TGI: 7.37 µM
SK-MEL-2 melanoma
  GI50: 4.38 µM
  TGI: 8.58 µM
NCI-H522 lung
  GI50: 4.16 µM
  TGI: 8.06 µM
ACHN renal
  GI50: 3.93 µM
  TGI: 7.49 µM
SNB-19 CNS
  GI50: 4.5 µM
  TGI: 8.51 µM
UACC-257 melanoma
  GI50: 4.06 µM
  TGI: 7.67 µM
HT29 colon
  GI50: 4.39 µM
  TGI: 8.7 µM
SK-OV-3 ovarian
  GI50: 4.44 µM
  TGI: 8.01 µM
RPMI-8226 leukemia
  GI50: 5.95 µM
  TGI: 15.7 µM
MDA-MB-231 breast
  GI50: 4.23 µM
  TGI: 8.46 µM
OVCAR-8 ovarian
  GI50: 4.47 µM
  TGI: 8.71 µM
SW-620 colon
  GI50: 3.42 µM
  TGI: 7.05 µM
NCI/ADR-RES ovarian
  GI50: 4.03 µM
  TGI: 8.69 µM
HCT-15 colon
  GI50: 3.95 µM
  TGI: 8.94 µM
OVCAR-5 ovarian
  GI50: 3.89 µM
  TGI: 7.85 µM
SK-MEL-28 melanoma
  GI50: 4.76 µM
  TGI: 9.52 µM
HCT-116 colon
  GI50: 3.91 µM
  TGI: 7.82 µM
SR leukemia
  GI50: 3.95 µM
  TGI: 10.5 µM
HS 578T breast
  GI50: 2.96 µM
  TGI: 7.4 µM
MCF7 breast
  GI50: 6.48 µM
  TGI: 25 µM
M14 melanoma
  GI50: 4.22 µM
  TGI: 8.5 µM
K-562 leukemia
  GI50: 5.91 µM
  TGI: 17 µM
SF-295 CNS
  GI50: 4.32 µM
  TGI: 8.13 µM
SF-539 CNS
  GI50: 4.46 µM
  TGI: 8.52 µM
OVCAR-4 ovarian
  GI50: 4.04 µM
  TGI: 7.61 µM
LOX IMVI melanoma
  GI50: 3.53 µM
  TGI: 7.68 µM
MDA-MB-435
  GI50: 4.11 µM
  TGI: 7.94 µM
RXF 393 renal
  GI50: 4.02 µM
  TGI: 7.75 µM
UACC-62 melanoma
  GI50: 3.74 µM
  TGI: 7.48 µM
CAKI-1 renal
  GI50: 4.32 µM
  TGI: 8.61 µM
PC-3 prostate
  GI50: 4.87 µM
  TGI: 9.7 µM
TK-10 renal
  GI50: 5.49 µM
  TGI: 11.7 µM
MALME-3M melanoma
  GI50: 4.62 µM
  TGI: 8.7 µM
A549 NSCLC
  GI50: 4.26 µM
  TGI: 8.28 µM
EKVX NSCLC
  GI50: 4.67 µM
  TGI: 8.74 µM
KM12 colon
  GI50: 4.12 µM
  TGI: 7.71 µM
NCI-H226 lung
  GI50: 4.51 µM
  TGI: 8.86 µM
U251 CNS
  GI50: 4.23 µM
  TGI: 7.75 µM
HOP-62 NSCLC
  GI50: 4.19 µM
  TGI: 7.72 µM
IGROV1 ovarian
  GI50: 4.14 µM
  TGI: 7.91 µM
DU-145 prostate
  GI50: 4.18 µM
  TGI: 7.62 µM
HL-60(TB) leukemia
  GI50: 5.76 µM
  TGI: 15.4 µM
SNB-75 CNS
  GI50: 3.09 µM
  TGI: 6.45 µM
SK-MEL-5 melanoma
  GI50: 4.24 µM
  TGI: 7.91 µM

## Cl.Fc1c[c-]c(-c2ccccn2)c(F)c1.[Pt].c1ccc([PH+](c2ccccc2)c2ccccc2[PH+](c2ccccc2)c2ccccc2)cc1
CCRF-CEM leukemia
  GI50: 0.078 µM
  TGI: 1.09 µM
OVCAR-3 ovarian
  GI50: 0.0629 µM
  TGI: 0.211 µM
ACHN renal
  GI50: 0.157 µM
  TGI: 0.46 µM
UACC-257 melanoma
  GI50: 0.107 µM
  TGI: 0.698 µM
SK-OV-3 ovarian
  GI50: 0.0883 µM
  TGI: 0.64 µM
OVCAR-5 ovarian
  GI50: 0.14 µM
  TGI: 0.415 µM
A498 renal
  GI50: 0.0493 µM
  TGI: 0.215 µM
MDA-MB-435
  GI50: 0.0825 µM
  TGI: 0.268 µM
RXF 393 renal
  GI50: 0.137 µM
  TGI: 0.296 µM
TK-10 renal
  GI50: 0.141 µM
  TGI: 0.689 µM
HOP-62 NSCLC
  GI50: 0.0655 µM
  TGI: 0.32 µM
DU-145 prostate
  GI50: 0.0677 µM
  TGI: 0.334 µM
HL-60(TB) leukemia
  GI50: 0.0395 µM
  TGI: 0.321 µM

## Cc1c(/C=N/NC(=S)Nc2ccc([N+](=O)[O-])cc2)c(=O)n(-c2ccccc2)n1C
HOP-92 NSCLC
  TGI: 25.5 µM
COLO 205 colon
  TGI: > 100 µM
NCI-H23 lung
  TGI: 32.6 µM
UO-31 renal
  TGI: 49.2 µM
MOLT-4 leukemia
  TGI: > 100 µM
786-0 renal
  TGI: 27.3 µM
CCRF-CEM leukemia
  TGI: > 100 µM
SF-268 CNS
  TGI: 26.7 µM
HCC-2998 colon
  TGI: > 100 µM
SK-MEL-2 melanoma
  TGI: 30.5 µM
ACHN renal
  TGI: 23.6 µM
SNB-19 CNS
  TGI: 31.8 µM
UACC-257 melanoma
  TGI: > 100 µM
HT29 colon
  TGI: 25.5 µM
SK-OV-3 ovarian
  TGI: 26.3 µM
RPMI-8226 leukemia
  TGI: > 100 µM
MDA-MB-231 breast
  TGI: 49.2 µM
OVCAR-8 ovarian
  TGI: 31.6 µM
SW-620 colon
  TGI: > 100 µM
NCI/ADR-RES ovarian
  TGI: 32.1 µM
HCT-15 colon
  TGI: 49.4 µM
SK-MEL-28 melanoma
  TGI: > 100 µM
HCT-116 colon
  TGI: 52.3 µM
SR leukemia
  TGI: > 100 µM
HS 578T breast
  TGI: 42.2 µM
MCF7 breast
  TGI: 50 µM
M14 melanoma
  TGI: 28.6 µM
K-562 leukemia
  TGI: > 100 µM
SF-295 CNS
  TGI: 22.7 µM
SF-539 CNS
  TGI: 30 µM
OVCAR-4 ovarian
  TGI: 34.7 µM
A498 renal
  TGI: 24 µM
LOX IMVI melanoma
  TGI: 33.3 µM
MDA-MB-435
  TGI: > 100 µM
RXF 393 renal
  TGI: 24.8 µM
UACC-62 melanoma
  TGI: 33.7 µM
CAKI-1 renal
  TGI: 18.9 µM
PC-3 prostate
  TGI: 76.8 µM
TK-10 renal
  TGI: 26.3 µM
EKVX NSCLC
  TGI: 24.5 µM
KM12 colon
  TGI: 51.1 µM
NCI-H226 lung
  TGI: 29.7 µM
U251 CNS
  TGI: 30.9 µM
HOP-62 NSCLC
  TGI: 23.8 µM
IGROV1 ovarian
  TGI: 25.9 µM
BT-549 breast
  TGI: 36.5 µM
HL-60(TB) leukemia
  TGI: > 100 µM
SNB-75 CNS
  TGI: 26.3 µM
SK-MEL-5 melanoma
  TGI: > 100 µM
